According to ChEMBL document CHEMBL1201862, “PubChem BioAssay data set” (2004):
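Exposure lasted 48 hours, with cells grown in 96-well plates and compounds tested at five concentrations. GI50: concentration for 50% inhibition of growth.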 Active and inactive are the calls of the source. Rule as the data show it: active = GI50 up to about 1.1 µM and inactive = higher.

Legend:
Assay in all cases: DTP human tumour cell line panel, 48 h
A549 = tested on: A549
HCT-116 = tested on: HCT-116
UO-31 = tested on: UO-31
OVCAR-8 = tested on: OVCAR-8
OVCAR-3 = tested on: OVCAR-3
SNB-19 = tested on: SNB-19
LXFL 529 = tested on: LXFL 529
EKVX = tested on: EKVX
RPMI-8226 = tested on: RPMI-8226
SF-295 = tested on: SF-295
NCI-H226 = tested on: NCI-H226
SR = tested on: SR
KM12 = tested on: KM12
HOP-62 = tested on: HOP-62
HCC 2998 = tested on: HCC 2998
SNB-75 = tested on: SNB-75
NCI-H460 = tested on: NCI-H460
LOX IMVI = tested on: LOX IMVI
SK-MEL-5 = tested on: SK-MEL-5
IGROV-1 = tested on: IGROV-1

Structure (SMILES): CCOC1=C2N=C(Cc3ccccc3F)N=C2C(=O)c2ccccc21
- GI50 (A549): > 100 µM (inactive)
- GI50 (HCT-116): > 100 µM (inactive)
- GI50 (UO-31): > 100 µM (inactive)
- GI50 (OVCAR-8): > 100 µM (inactive)
- GI50 (OVCAR-3): > 100 µM (inactive)
- GI50 (SNB-19): > 100 µM (inactive)
- GI50 (LXFL 529): > 100 µM (inactive)
- GI50 (EKVX): > 100 µM (inactive)
- GI50 (RPMI-8226): > 100 µM (inactive)
- GI50 (SF-295): > 100 µM (inactive)
- GI50 (NCI-H226): > 100 µM (inactive)
- GI50 (SR): > 100 µM (inactive)
- GI50 (KM12): > 100 µM (inactive)
- GI50 (HOP-62): > 100 µM (inactive)
- GI50 (HCC 2998): > 100 µM (inactive)
- GI50 (SNB-75): 90.8 µM (inactive)
- GI50 (NCI-H460): > 100 µM (inactive)

Structure (SMILES): O=C1CCC(c2nc3ccccc3o2)C(=O)N1 (stereo not given)
- GI50 (A549): > 100 µM (inactive)
- GI50 (HCT-116): > 100 µM (inactive)
- GI50 (UO-31): > 100 µM (inactive)
- GI50 (OVCAR-8): > 100 µM (inactive)
- GI50 (OVCAR-3): > 100 µM (inactive)
- GI50 (SNB-19): > 100 µM (inactive)
- GI50 (LXFL 529): > 100 µM (inactive)
- GI50 (EKVX): > 100 µM (inactive)
- GI50 (SF-295): > 100 µM (inactive)
- GI50 (NCI-H226): > 100 µM (inactive)
- GI50 (LOX IMVI): > 100 µM (inactive)
- GI50 (SK-MEL-5): > 100 µM (inactive)
- GI50 (SR): > 100 µM (inactive)
- GI50 (IGROV-1): > 100 µM (inactive)
- GI50 (KM12): > 100 µM (inactive)
- GI50 (HOP-62): > 100 µM (inactive)
- GI50 (HCC 2998): > 100 µM (inactive)
- GI50 (SNB-75): 79.1 µM (inactive)
- GI50 (NCI-H460): > 100 µM (inactive)

Structure (SMILES): CCOC(=O)C(Cc1ccccc1)NC(=O)c1nc[nH]c1/N=N/N(C)C (stereo not given)
- GI50 (A549): > 100 µM (inactive)
- GI50 (HCT-116): > 100 µM (inactive)
- GI50 (UO-31): > 100 µM (inactive)
- GI50 (OVCAR-8): > 100 µM (inactive)
- GI50 (OVCAR-3): > 100 µM (inactive)
- GI50 (SNB-19): > 100 µM (inactive)
- GI50 (LXFL 529): > 100 µM (inactive)
- GI50 (EKVX): > 100 µM (inactive)
- GI50 (RPMI-8226): > 100 µM (inactive)
- GI50 (SF-295): > 100 µM (inactive)
- GI50 (NCI-H226): > 100 µM (inactive)
- GI50 (LOX IMVI): > 100 µM (inactive)
- GI50 (SK-MEL-5): > 100 µM (inactive)
- GI50 (SR): > 100 µM (inactive)
- GI50 (IGROV-1): > 100 µM (inactive)
- GI50 (KM12): > 100 µM (inactive)
- GI50 (HOP-62): > 100 µM (inactive)
- GI50 (HCC 2998): > 100 µM (inactive)
- GI50 (SNB-75): > 100 µM (inactive)
- GI50 (NCI-H460): > 100 µM (inactive)

Structure (SMILES): COc1ccc(C(=O)C=C2NCCN2)cc1
- GI50 (A549): > 100 µM (inactive)
- GI50 (HCT-116): > 100 µM (inactive)
- GI50 (UO-31): > 100 µM (inactive)
- GI50 (OVCAR-8): > 100 µM (inactive)
- GI50 (OVCAR-3): > 100 µM (inactive)
- GI50 (SNB-19): > 100 µM (inactive)
- GI50 (LXFL 529): > 100 µM (inactive)
- GI50 (EKVX): > 100 µM (inactive)
- GI50 (RPMI-8226): > 100 µM (inactive)
- GI50 (SF-295): > 100 µM (inactive)
- GI50 (NCI-H226): > 100 µM (inactive)
- GI50 (LOX IMVI): > 100 µM (inactive)
- GI50 (SK-MEL-5): > 100 µM (inactive)
- GI50 (SR): > 100 µM (inactive)
- GI50 (IGROV-1): > 100 µM (inactive)
- GI50 (KM12): > 100 µM (inactive)
- GI50 (HOP-62): > 100 µM (inactive)
- GI50 (HCC 2998): > 100 µM (inactive)
- GI50 (SNB-75): > 100 µM (inactive)
- GI50 (NCI-H460): > 100 µM (inactive)

Structure (SMILES): CC(=O)OC1CC2C(C)(C)C(=O)C=C[C@]2(C)C2CCC3(C)C(=CCC3[C@H](CO)C[C@H](O)C(=O)C(C)(C)O)[C@]12C (stereo not given in full)
- GI50 (A549): 24.2 µM (inactive)
- GI50 (HCT-116): 30.3 µM (inactive)
- GI50 (UO-31): 23.7 µM (inactive)
- GI50 (OVCAR-8): 17.3 µM (inactive)
- GI50 (OVCAR-3): 19.5 µM (inactive)
- GI50 (SNB-19): 31.7 µM (inactive)
- GI50 (LXFL 529): 42.4 µM (inactive)
- GI50 (EKVX): 20.3 µM (inactive)
- GI50 (RPMI-8226): 22.3 µM (inactive)
- GI50 (SF-295): 12.9 µM (inactive)
- GI50 (NCI-H226): 20.6 µM (inactive)
- GI50 (LOX IMVI): 18.2 µM (inactive)
- GI50 (SK-MEL-5): 19 µM (inactive)
- GI50 (SR): 25.4 µM (inactive)
- GI50 (IGROV-1): 21.5 µM (inactive)
- GI50 (KM12): 19.1 µM (inactive)
- GI50 (HCC 2998): 18.1 µM (inactive)
- GI50 (SNB-75): 24.3 µM (inactive)
- GI50 (NCI-H460): 16.6 µM (inactive)

Structure (SMILES): CC(=O)OCC1OC(OC2CC3C(C)(C)C(O)CC[C@]3(C)C3CCC45CC4(CC[C@H]5C(C)CC(O)C4OC4(C)C)[C@]23C)C(O)C(O)C1O (stereo not given in full)
- GI50 (A549): 10.6 µM (inactive)
- GI50 (HCT-116): 9.14 µM (inactive)
- GI50 (UO-31): 8.51 µM (inactive)
- GI50 (OVCAR-8): 6.89 µM (inactive)
- GI50 (OVCAR-3): 6.17 µM (inactive)
- GI50 (SNB-19): 8 µM (inactive)
- GI50 (LXFL 529): 5.83 µM (inactive)
- GI50 (EKVX): 8.61 µM (inactive)
- GI50 (RPMI-8226): 0.711 µM (active)
- GI50 (SF-295): 8.24 µM (inactive)
- GI50 (NCI-H226): 8.95 µM (inactive)
- GI50 (LOX IMVI): 5.2 µM (inactive)
- GI50 (SK-MEL-5): 3.1 µM (inactive)
- GI50 (SR): 1.47 µM (inactive)
- GI50 (IGROV-1): 0.966 µM (active)
- GI50 (KM12): 8.04 µM (inactive)
- GI50 (HOP-62): 11.1 µM (inactive)
- GI50 (HCC 2998): 7.06 µM (inactive)
- GI50 (SNB-75): 7.46 µM (inactive)
- GI50 (NCI-H460): 8.91 µM (inactive)
